The numbers were not newly measured in patent US10993944B2, “Methods and compositions for the treatment of hair loss” (Aneira Pharma, Inc., priority 2019, dated 2021), which cites them from elsewhere.

Where two headings read alike, the source gives them in different places.

The subject of series [1] is elevated intraocular pressure. The following applies: glaucomatous monkey eyes; Gagliuso 2004.
The test system of series [2] is elevated intraocular pressure. The following applies: human glaucoma patients non-responsive to latanoprost; Gandolfi 2003.
Series [3] concerns the target human recombinant FP receptor (Homo sapiens, UniProt P43088).
Test in series [4]: not given
The source holds these as a separate data set.

The test system of series [5] is hair growth. The following applies: McCarey 2004.
Series [6] has as its system dihydrotestosterone (DHT). The conditions noted are these: oral; including prostate gland and scalp.
The test system of series [7] is hair growth.

Sequence of human recombinant FP receptor (P43088 whole entry): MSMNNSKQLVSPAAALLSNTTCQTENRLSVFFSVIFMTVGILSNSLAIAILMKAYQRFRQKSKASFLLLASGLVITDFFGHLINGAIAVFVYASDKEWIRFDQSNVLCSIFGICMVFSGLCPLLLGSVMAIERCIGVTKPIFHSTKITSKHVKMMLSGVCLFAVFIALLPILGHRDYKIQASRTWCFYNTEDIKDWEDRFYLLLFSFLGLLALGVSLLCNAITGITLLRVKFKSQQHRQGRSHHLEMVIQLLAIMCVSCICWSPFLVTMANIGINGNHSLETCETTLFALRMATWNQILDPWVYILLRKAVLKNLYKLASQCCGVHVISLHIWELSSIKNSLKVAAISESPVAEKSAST

Consider `CCNC(=O)CCC/C=C\C[C@@H]1[C@@H](/C=C/[C@@H](O)CCc2ccccc2)[C@H](O)C[C@@H]1O` [Bimatoprost], for which the “effect on elevated intraocular pressure in combination with latanoprost” value in series [1] is “additive to that of latanoprost”. Besides, in series [2], the “response in reducing elevated intraocular pressure” value was “found responsive to bimatoprost”.
For the compound `O=C(O)CCC/C=C\C[C@@H]1[C@@H](CC[C@@H](O)CCc2ccccc2)[C@H](O)C[C@@H]1O` [Latanoprost free acid, Latanoprost acid], the “potency compared to PGF2α” value in series [3] (human FP receptors) is listed as “twice the potency of PGF2α”. For the same compound, in series [3] (human recombinant FP receptor), the “potency as an FP receptor ligand compared to latanoprost” value is “two-hundred times more potent than latanoprost”.
For `CC(C)OC(=O)CCC/C=C\C[C@@H]1[C@@H](CC[C@@H](O)CCc2ccccc2)[C@H](O)C[C@@H]1O` [Latanoprost, isopropyl ester of 17-phenyl-13,14-dihydro prostaglandin F2a], the “fat solubility compared to bimatoprost” value was “more fat soluble than bimatoprost” and the “solubility in water (words)” value was “poorly dissolved in water”. The “solubility in propylene glycol, methanol, ethanol and 2-propanol” value (highest concentration (5%)) was “Sufficient amount of solubility can be obtained even at the highest concentration (5%)”. Besides, the “solubility in water (words)” value (listed as latanoprost) is on record as “poor solubility in water”. For the same compound, the “stability in acidic or basic aqueous solutions” value in series [4] (acidic or basic aqueous solutions) is “no more than 48 hours”. In addition, the “stability in neutral aqueous solutions” value in series [4] (neutral aqueous solutions, room temperature) was “up to one month”.
For the compound `CCCCCCCC(=O)CC[C@@H]1[C@@H](C/C=C\CCCC(=O)OC(C)C)[C@@H](O)C[C@H]1O` [Uenoprostone isopropyl ester, Unoprostone isopropyl ester], the hair growth result with hair growth [5] is “cause no hair growth and in fact may inhibit hair growth”.
With `CC(C)(C)NC(=O)[C@H]1CC[C@H]2[C@@H]3CC[C@H]4NC(=O)C=C[C@]4(C)[C@H]3CC[C@]12C` [finasteride, (1S,3aS,3bS,5aR,9aR,9bS,11aS)—N-tert-butyl-9a,11a-dimethyl-7-oxo-1,2,3,3a,3b,4,5,5a,6,9b,10,11-dodecahydroindeno[5,4-f]quinoline-1-carboxamide], the “decrease of production of dihydrotestosterone (DHT)” value in series [6] was “about 70%”.
Take `Nc1cc(N2CCCCC2)nc(N)[n+]1OS(=O)(=O)[O-]` [minoxidil sulphate]: the “potency as hair growth agent compared to minoxidil” value with hair growth [7] is reported as “much more potent hair growth agent”.
On to `CCCCCCCC(=O)CC[C@@H]1[C@@H](C/C=C\CCCC(=O)O)[C@@H](O)C[C@H]1O` [uenoprostone free acid], for which the hair growth entry with hair growth [5] is “cause no hair growth and in fact may inhibit hair growth”.
